{
  "source": "patent US9234186B2",
  "about": "“Star-worm luciferase” (OLYMPUS CORPORATION, priority 2011, dated 2016)",
  "biological_target": "GL3 luciferase derived from P. pyralis (Photinus pyralis, UniProt P08659, K549A/L550V/N119G/N50D/S548I)",
  "sequence (P08659 whole entry N50D/N119G/S548I/K549A/L550V)": "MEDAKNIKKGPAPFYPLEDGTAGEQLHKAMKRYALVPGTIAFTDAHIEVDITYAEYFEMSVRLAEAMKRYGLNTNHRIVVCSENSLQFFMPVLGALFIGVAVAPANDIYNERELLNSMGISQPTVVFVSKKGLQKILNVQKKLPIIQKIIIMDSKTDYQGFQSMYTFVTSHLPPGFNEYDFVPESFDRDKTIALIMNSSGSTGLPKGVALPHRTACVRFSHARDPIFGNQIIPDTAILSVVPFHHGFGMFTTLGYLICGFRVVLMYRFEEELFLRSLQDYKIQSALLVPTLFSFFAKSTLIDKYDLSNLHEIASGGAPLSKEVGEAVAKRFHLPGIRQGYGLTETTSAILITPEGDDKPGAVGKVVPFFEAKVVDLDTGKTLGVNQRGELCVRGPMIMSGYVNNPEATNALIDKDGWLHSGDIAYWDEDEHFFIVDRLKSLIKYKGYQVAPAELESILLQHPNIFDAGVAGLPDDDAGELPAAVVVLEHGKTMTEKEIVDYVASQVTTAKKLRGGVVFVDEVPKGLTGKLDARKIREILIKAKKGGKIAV",
  "type": "biochemical",
  "details": "read-out: Km for ATP; 0.1 M Tris-HCl pH 8.0; enzyme solution with 1 mM D-luciferin, 8 mM MgSO4",
  "data": [
    {"smiles": "Nc1ncnc2c1ncn2[C@@H]1O[C@H](COP(=O)(O)OP(=O)(O)OP(=O)(O)O)[C@@H](O)[C@H]1O", "note": "[ATP, Adenosine triphosphate]", "values": [
      {"measurement": "Km", "value": 64.3, "unit": "µM"}
    ]}
  ]
}
